Assay [1] deals with serum antibodies of RA patients and healthy controls. Particulars: seven patients; cited from earlier work.
For assay [2], the system named is serum IgG of RA patients, disease controls and healthy controls. Description: ELISA for IgG antibodies to cyclic α-enolase peptides, UK cohort sera. To be noted: for % positive, RA (n = 102): UK cohort RA sera; for % positive, RA (n = 102) / % positive, Disease controls (n = 110) / % positive, Healthy controls (n = 92): cut-off OD450 = 0.1. Format: binding, human. The source says:
(§1) Serum samples were obtained with informed consent and ethical approval from 102 patients with RA and 92 (or 110 patients for the results generally shown in FIGS. 9 to 16) patients with other arthritidies (including systemic lupus erythematosus (n=32), Sjogrens syndrome (n=31), psoriatic arthritis (n=5), Behçet's syndrome (n=18; FIGS. 9 to 16) and miscellaneous other rheumatic diseases (n=24). 92 control serum samples were obtained from healthy volunteers. An additional cohort of 24 patients with RA undergoing treatment with either methotrexate (MTX) alone (n=13) or methotrexate in combination with Infliximab (INF) (n=11) were collected before treatment as well as 6, 18 and 52 weeks post treatment. Disease activity score (DAS 28), erythrocyte sedimentation rate (ESR) and C-reactive protein (CRP) were measured for each patient at the same time points, i.e. 0, 6, 18 an 52 weeks post treatment. All patients attended the Rheumatology Clinic at Charing Cross Hospital, London. An independent cohort from the US included serum samples from 81 RA patients, taken at baseline in a clinical trial at the Omaha Veterans Affairs Medical Centre, University of Nebraska, USA, and 82 serum samples from healthy volunteers. All RA patients met the American College of Rheumatology (ACR) classification criteria (43).
Fifteen cyclic 15 to 23-mer peptides were synthesised at Cambridge Research Biochemicals (Cleveland, UK). The peptide sequences corresponded to amino acid sequences in human α-enolase (SwissProt accession number P06733) or P. gingivalis enolase (SwissProt accession number AAQ66821), with the addition of cysteine residues at the amino- and carboxy-termini and the exchange of citrulline for arginine residues at certain positions, as shown in Tablet and Table 2 below.
(§2) 96-well plates (Maxisorp; Nunc, Roskilde, Denmark) were coated with α-enolase peptides at 10 μg/ml (diluted in a 50 mM carbonate buffer, pH 9.6), or with carbonate buffer alone, and incubated over night at 4° C. Wells were washed with PBS-Tween (0.05%) and blocked with 2% BSA (diluted in PBS) for 3 hours at room temperature. Sera were diluted 1:50 in RIA-buffer (10 mM Tris, 1% BSA, 350 mM NaCl, 1% Triton-X, 0.5% Na-deoxychlate, 0.1% SDS) supplemented with 10% FCS, added in duplicates and incubated for 1.5 hour at room temperature. Plates were washed as described above and incubated with peroxidase-conjugated mouse anti-human IgG (Hybridoma Reagent Laboratory, Baltimore, USA) (diluted 1:1000 in RIA-buffer, 10% FCS) for 1 hour at room temperature. After a final wash (PBS-Tween, 0.05%), bound antibodies were detected with TMB substrate (KPL, Maryland, USA). The reaction was stopped by the addition of 1M H2SO4 and absorbance measured at 450 nm in a Multiscan Ascent microplate reader (Thermo Labsystems). A control serum was included on all plates to correct for plate-to-plate variation. Background OD450 (wells coated with only carbonate buffer) was subtracted from peptide OD450 for every serum tested. Values above 0.1 were taken as positive. ELISA on the US serum samples were performed in a similar manner, but with 2% BSA in carbonate buffer as background, and with an OD cut-off of 0.2 for positive samples. Anti-CCP antibody status was analysed using the CCP2 kit (Eurodiagnostica, Malmo, Sweden), according to the manufacturer's instructions.

The test system of assay [3] is anti-CEP-1 antibodies in anti-CEP-1 positive RA sera. The assay can be described thus: Liquid phase inhibition of binding to CEP-1-coated plates. More on the design: species or system human. Particulars: six anti-CEP-1 positive RA sera pre-incubated with 0, 1, 10 and 100 μg/ml peptide. The protocol:
Inhibition experiments were performed in liquid phase on six anti-CEP-1 positive RA serum samples or on solid phase using serum from nine double positive (anti-CEP-1 and CCP positive) RA patients. Sera were either pre-incubated for 2 hours in RIA-buffer containing increasing concentrations (0, 1, 10 and 100 μg/ml) of CEP-1, control peptide 1D, peptide 4, peptide 7, peptide 9 or peptide 11, or pre-absorbed on plates coated with CEP-1, carbonate buffer alone or pre-absorbed on commercial CCP2 plates. To eliminate antigen-antibody complexes, the liquid phase mixtures were centrifuged at 13 000 rpm, for 15 minutes, before the supernatants were transferred to CEP-1-coated plates and assessed as described above Inhibition of binding to CEP-1, for serum samples pre-absorbed to CCP, was calculated in relation to the maximum inhibition, which by definition was set to 100% for samples pre-incubated with CEP-1.

For assay [4], the system named is anti-Peptide 1A and anti-CCP antibodies in serum. The assay can be described thus: Serology over time in 24 RA patients treated with MTX or MTX+INF. Type of assay: binding, human.
Excerpt: as §1, with “All patients attended the Rheumatology Clinic at Charing Cross Hospital, London. An independent cohort from the US included serum samples from 81 RA patients, taken at baseline in a clinical trial at the Omaha Veterans Affairs Medical Centre, University of Nebraska, USA, and 82 serum samples from healthy volunteers. All RA patients met the American College of Rheumatology (ACR) classification criteria (43).” left out
96-well plates (Maxisorp; Nunc, Roskilde, Denmark) were coated with α-enolase peptides at 10 μg/ml (diluted in a 50 mM carbonate buffer, pH 9.6), or with carbonate buffer alone, and incubated over night at 4° C. […] After a final wash (PBS-Tween, 0.05%), bound antibodies were detected with TMB substrate (KPL, Maryland, USA). The reaction was stopped by the addition of 1M H2SO4 and absorbance measured at 450 nm in a Multiscan Ascent microplate reader (Thermo Labsystems). […]

Assay [5] concerns serum antibodies of RA patients and healthy controls grouped by CCP status. Description: ELISA for reactivity with CEP-1, Swedish EIRA cohort (Example 3). Type of assay: binding, human. The protocol:
Sera from healthy controls and 511 rheumatoid arthritis patients from the Swedish EIRA (Epidemiological Investigation of Rheumatoid Arthritis) cohort (Stolt et al, Quantification of the influence of cigarette smoking on RA, Ann Rheum Dis, 2003; 62:835-841), were tested for antibodies to cyclic citrullinated peptides using the commercially available anti-CCP ELISA. At least 600 healthy controls were screened and, amongst these, a rare population that were CCP positive (n=16) were identified. Two of these CCP positive individuals have developed RA since the blood samples were collected.
Sera from the 511 rheumatoid arthritis patients, 16 CCP positive healthy controls and 126 CCP negative healthy controls were also screened by ELISA for reactivity with CEP-1 (Peptide 1A) as described in Example 1. The rheumatoid arthritis patients were divided into CCP positive (n=410) and CCP negative (n=101) groups.
(In an ELISA, binding on a coated surface is turned into a signal by an enzyme label.)

In assay [6] the test system is serum IgG of RA patients and healthy controls (US cohort). The assay can be described thus: anti-CEP-1 antibody ELISA, independent US cohort. Type of assay: binding, human.
Excerpt: as §1
as §2, with “ELISA on the US serum samples were performed in a similar manner, but with 2% BSA in carbonate buffer as background, and with an OD cut-off of 0.2 for positive samples.” left out, “instructions. […]” for “instructions.”

Assay [7] can be described thus: Disease activity score DAS28 (CRP and ESR) in treated RA patients. Type of assay: in vivo, human. Particulars: 6, 18 and 52 weeks post treatment; MTX n=13, MTX+INF n=11.
Excerpt: as §1

Assay [8] relates to serum antibodies of SLE patients. Description: ELISA of SLE patient sera on α-enolase peptides (Example 2). Format: binding, human. To be noted: 29 SLE patients; OD450 below 0.1 negative. How it is done:
Sera from 29 patients diagnosed with systemic lupus erythromatosus (SLE) were tested by ELISA for reactivity with 11 citrullinated α-enolase peptides, namely Peptide 1A, 1B, 1D and Peptides 2 to 9 as shown in Table 1. The ELISA assay was as described in Example 1.
The quantity of antibody, from each patient sample, binding to each peptide, is reflected by the OD (450 nm) in the ELISA assay. The OD (450 nm) corresponding to the background (buffer only) was subtracted. The results, after subtraction of background, are depicted in FIG. 8A. All OD (450 nm) values below 0.1 were considered negative (=0).

Where [9] appears, read: cut-off 98th percentile of controls.

Values joined by “and” are separate entries in the source; they are usually repeats but may differ in a detail not shown here. Equal entries are not always repeated. “Also recorded” adds a separate entry of the source. Bridges are numbered along the chain shown (N, C = ends). Where no end group is shown, it is not given here. [ ]: non-standard residue; d: D form. Cit = NC(=O)NCCC[C@H](N)C(=O)O

On to “non-citrullinated protein: whole non-citrullinated α-enolase protein”, for which the “% of RA patients also recognizing the non-citrullinated protein” value in assay [1] was 13%.
Turning to “ckiha-X-eifds-X-gnptvec (CKIHA[Cit]EIFDS[Cit]GNPTVEC; disulfide 1-19 (inferred); listed as Homo sapiens) [Peptide 1A]”, the “% of healthy controls reactive” value in assay [2] (UK and US cohorts together) is recorded as 2%. In addition, the “% positive, RA (n = 102)” value in assay [2] was 37.3%. The “% positive, RA (n = 102)” value in assay [2] (listed as 1A(CEP-1)) worked out at 37%. Also, the “% of anti-CCP negative RA patients positive” value in assay [2] (UK cohort, anti-CCP negative RA sera) was determined as 23%. Moreover, the “% positive, non-RA patient controls (n=92)” value in assay [2] (UK cohort, smaller disease control group) amounted to 4.3%. In assay [2] (UK cohort), the “% positive, Disease controls (n = 110)” value was found to be 3%; the “% positive, Healthy controls (n = 92)” value is 2.2% and 2%. The “% positive, Healthy controls (n = 92)” value in assay [2] (UK cohort, listed as 1A(CEP-1)) was determined as 2%. The “specificity for RA” value in assay [2] (UK cohort, disease controls (92 or 110) and 92 healthy controls) was 97%. In assay [2] (UK disease controls), the “anti-CEP-1 antibody status of patients with SLE and Behçet's disease” value was “uniformly negative”. Moreover, in assay [2] (summary statement), the “% of individuals without rheumatoid arthritis scored positive” value is “about 3% and ~2%”. In addition, in assay [3], the “inhibition of antibody binding to CEP-1-coated plates” value (“inhibition of antibody binding” below) is on record as “dose dependent decrease; also recorded: dose-dependent inhibition”. Further, in assay [4] (24 RA patients, nine positive in each treatment group), the “sensitivity at start of study” value is reported as 75%. Besides, in assay [5] (Swedish EIRA cohort), the “% positive for anti-CEP-1 antibodies, CCP+ RA (n=410)” value is on record as “Sixty” and the “% positive for anti-CEP-1 antibodies, CCP− RA (n=101)” value was 17%. Moreover, in assay [5] (Swedish cohort), the “% positive for anti-CEP-1 antibodies, CCP+ healthy controls (n=16)” value stood at 25% and the “% positive for anti-CEP-1 antibodies, CCP− healthy controls (n=126)” value came out at 0.8%. Further, the “specificity, US cohort” value in assay [6] (82 healthy controls, no disease controls) is on record as 98%. In addition, in assay [6] (setting [9]), the “% RA patients positive / sensitivity, US cohort (n=81)” value worked out at 62% and the “% healthy controls positive, US cohort (n=82)” value stood at 2%.
As for `CN(Cc1cnc2nc(N)nc(N)c2n1)c1ccc(C(=O)N[C@@H](CCC(=O)O)C(=O)O)cc1` [MTX, methotrexate], the “anti-Peptide 1A antibody levels over time” value in assay [4] (pre-treatment, 6, 18 and 52 weeks, not statistically significant) is “increased”. Also, the “DAS28 (CRP and ESR) change” value in assay [7] was “did not result in such statistically significant decrease; also recorded: did not change significantly”.
Regarding “cangwgvmvsh-X-sgetedtc (CANGWGVMVSH[Cit]SGETEDTC; disulfide 1-20 (inferred); listed as Homo sapiens) [Peptide 7, human α-enolase aa 362-379]”, the “% positive, RA (n = 102)” value in assay [2] is given as 4%. In addition, in assay [2] (UK cohort), the “% positive, Disease controls (n = 110)” value stood at 2% and the “% positive, Healthy controls (n = 92)” value was 2%. Further, the “% of SLE sera scored positive” value in assay [8] is 3.4%. In assay [3], the “inhibition of antibody binding” value was “no inhibition”. Further, in assay [3] (listed as peptide 7), the “inhibition of antibody binding” value is recorded as “did not result in decreased antibody binding”.
“cf-X-sgkydldfkspddps-X-yc (CF[Cit]SGKYDLDFKSPDDPS[Cit]YC; disulfide 1-21 (inferred); listed as Homo sapiens) [Peptide 6, human α-enolase aa 252-270]”: the “% positive, RA (n = 102)” value in assay [2] came to 12%. Also, in assay [2] (UK cohort), the “% positive, Disease controls (n = 110)” value is reported as 5% and the “% positive, Healthy controls (n = 92)” value is recorded as 0%. Moreover, the “% of SLE sera scored positive” value in assay [8] was 3.4%.
